Patent US20240382629A1, “HETEROBIVALENT AND HOMOBIVALENT AGENTS TARGETING FIBROBLAST ACTIVATION PROTEIN ALPHA AND/OR PROSTATE-SPECIFIC MEMBRANE ANTIGEN” (The Johns Hopkins University, priority 2021, published 2024)
Values joined by “and” are separate entries in the source; they are usually repeats but may differ in a detail not shown here. Equal entries are not always repeated.

Test: Biodistribution of [^18F]JHU1221823 with cold FAPI-04 blocker
Type: in vivo, mouse
Settings: for % ID/g Bladder / % ID/g Blood / % ID/g Brain / % ID/g Fat / % ID/g Femur / % ID/g Heart / % ID/g Kidney / % ID/g Large intestine / % ID/g Liver / % ID/g Lung / % ID/g Muscle / % ID/g Pancreas / % ID/g Salivary gland / % ID/g Small intestine / % ID/g Spleen / % ID/g Stomach / % ID/g Tumor: single mouse

Compound: N#C[C@@H]1CCCN1C(=O)CNC(=O)c1ccnc2ccc(OCCCNC(=O)CCOCCOCCOCCOCCNC(=O)[C@H](CCCCNC(=O)c3ccc([18F])nc3)NC(=O)CN3CCN(CC(=O)O)CCN(CC(=O)O)CCN(CC(=O)O)CC3)cc12 [[^18F]JHU1221823]
- % ID/g Mean Bladder (30 min): 2.49 % ID/g
- % ID/g Bladder (30 min): 1.53 % ID/g and 3.45 % ID/g
- % ID/g Mean Bladder (60 min): 5.51 % ID/g
- % ID/g Bladder (60 min): 3.64 % ID/g and 7.58 % ID/g
- % ID/g Mean Bladder (+ Blocker Cold FAPI-04, 60 min): 2.33 % ID/g
- % ID/g Bladder (+ Blocker Cold FAPI-04, 60 min): 2.62 % ID/g and 2.04 % ID/g
- % ID/g Mean Blood (30 min): 10.81 % ID/g
- % ID/g Blood (30 min): 11.89 % ID/g and 9.72 % ID/g
- % ID/g Mean Blood (60 min): 10.03 % ID/g
- % ID/g Blood (60 min): 9.50 % ID/g and 10.76 % ID/g
- % ID/g Mean Blood (+ Blocker Cold FAPI-04, 60 min): 0.25 % ID/g
- % ID/g Blood (+ Blocker Cold FAPI-04, 60 min): 0.22 % ID/g and 0.28 % ID/g
- % ID/g Mean Brain (30 min): 0.29 % ID/g
- % ID/g Brain (30 min): 0.26 % ID/g and 0.31 % ID/g
- % ID/g Mean Brain (60 min): 0.45 % ID/g
- % ID/g Brain (60 min): 0.40 % ID/g and 0.50 % ID/g
- % ID/g Mean Brain (+ Blocker Cold FAPI-04, 60 min): 0.09 % ID/g
- % ID/g Brain (+ Blocker Cold FAPI-04, 60 min): 0.06 % ID/g and 0.11 % ID/g
- % ID/g Mean Fat (30 min): 0.42 % ID/g
- % ID/g Fat (30 min): 0.41 % ID/g and 0.43 % ID/g
- % ID/g Mean Fat (60 min): 0.56 % ID/g
- % ID/g Fat (60 min): 0.53 % ID/g and 0.58 % ID/g
- % ID/g Mean Fat (+ Blocker Cold FAPI-04, 60 min): 0.21 % ID/g
- % ID/g Fat (+ Blocker Cold FAPI-04, 60 min): 0.15 % ID/g and 0.27 % ID/g
- % ID/g Mean Femur (30 min): 3.50 % ID/g
- % ID/g Femur (30 min): 3.95 % ID/g and 3.45 % ID/g
- % ID/g Mean Femur (60 min): 3.54 % ID/g
- % ID/g Femur (60 min): 3.21 % ID/g and 3.87 % ID/g
- % ID/g Mean Femur (+ Blocker Cold FAPI-04, 60 min): 1.78 % ID/g
- % ID/g Femur (+ Blocker Cold FAPI-04, 60 min): 0.98 % ID/g and 2.58 % ID/g
- % ID/g Mean Heart (30 min): 5.01 % ID/g
- % ID/g Heart (30 min): 5.25 % ID/g and 4.76 % ID/g
- % ID/g Mean Heart (60 min): 4.52 % ID/g
- % ID/g Heart (60 min): 4.67 % ID/g and 4.58 % ID/g
- % ID/g Mean Heart (+ Blocker Cold FAPI-04, 60 min): 0.28 % ID/g
- % ID/g Heart (+ Blocker Cold FAPI-04, 60 min): 0.22 % ID/g and 0.33 % ID/g
- % ID/g Mean Kidney (30 min): 3.17 % ID/g
- % ID/g Kidney (30 min): 3.37 % ID/g and 2.96 % ID/g
- % ID/g Mean Kidney (60 min): 2.75 % ID/g
- % ID/g Kidney (60 min): 2.76 % ID/g and 2.75 % ID/g
- % ID/g Mean Kidney (+ Blocker Cold FAPI-04, 60 min): 1.77 % ID/g
- % ID/g Kidney (+ Blocker Cold FAPI-04, 60 min): 1.85 % ID/g and 1.69 % ID/g
- % ID/g Mean Large intestine (30 min): 2.14 % ID/g
- % ID/g Large intestine (30 min): 1.61 % ID/g and 2.67 % ID/g
- % ID/g Mean Large intestine (60 min): 5.58 % ID/g
- % ID/g Large intestine (60 min): 1.70 % ID/g and 5.45 % ID/g
- % ID/g Mean Large intestine (+ Blocker Cold FAPI-04, 60 min): 0.47 % ID/g
- % ID/g Large intestine (+ Blocker Cold FAPI-04, 60 min): 0.41 % ID/g and 0.52 % ID/g
- % ID/g Mean Liver (30 min): 2.44 % ID/g
- % ID/g Liver (30 min): 2.58 % ID/g and 2.30 % ID/g
- % ID/g Mean Liver (60 min): 2.62 % ID/g
- % ID/g Liver (60 min): 2.49 % ID/g and 2.75 % ID/g
- % ID/g Mean Liver (+ Blocker Cold FAPI-04, 60 min): 0.44 % ID/g
- % ID/g Liver (+ Blocker Cold FAPI-04, 60 min): 0.35 % ID/g and 0.51 % ID/g
- % ID/g Mean Lung (30 min): 6.38 % ID/g
- % ID/g Lung (30 min): 6.92 % ID/g and 5.83 % ID/g
- % ID/g Mean Lung (60 min): 6.05 % ID/g
- % ID/g Lung (60 min): 5.36 % ID/g and 6.75 % ID/g
- % ID/g Mean Lung (+ Blocker Cold FAPI-04, 60 min): 0.72 % ID/g
- % ID/g Lung (+ Blocker Cold FAPI-04, 60 min): 0.54 % ID/g and 0.89 % ID/g
- % ID/g Mean Muscle (30 min): 1.73 % ID/g
- % ID/g Muscle (30 min): 1.74 % ID/g and 1.71 % ID/g
- % ID/g Mean Muscle (60 min): 1.75 % ID/g
- % ID/g Muscle (60 min): 1.76 % ID/g and 1.75 % ID/g
- % ID/g Mean Muscle (+ Blocker Cold FAPI-04, 60 min): 0.48 % ID/g
- % ID/g Muscle (+ Blocker Cold FAPI-04, 60 min): 0.25 % ID/g and 0.61 % ID/g
- % ID/g Mean Pancreas (30 min): 3.13 % ID/g
- % ID/g Pancreas (30 min): 3.58 % ID/g and 2.88 % ID/g
- % ID/g Mean Pancreas (60 min): 3.70 % ID/g
- % ID/g Pancreas (60 min): 5.44 % ID/g and 3.95 % ID/g
- % ID/g Mean Pancreas (+ Blocker Cold FAPI-04, 60 min): 0.37 % ID/g
- % ID/g Pancreas (+ Blocker Cold FAPI-04, 60 min): 0.27 % ID/g and 0.46 % ID/g
- % ID/g Mean Salivary gland (30 min): 8.51 % ID/g
- % ID/g Salivary gland (30 min): 7.35 % ID/g and 9.57 % ID/g
- % ID/g Mean Salivary gland (60 min): 8.97 % ID/g
- % ID/g Salivary gland (60 min): 9.14 % ID/g and 8.79 % ID/g
- % ID/g Mean Salivary gland (+ Blocker Cold FAPI-04, 60 min): 0.42 % ID/g
- % ID/g Salivary gland (+ Blocker Cold FAPI-04, 60 min): 0.37 % ID/g and 0.48 % ID/g
- % ID/g Mean Small intestine (30 min): 2.78 % ID/g
- % ID/g Small intestine (30 min): 3.08 % ID/g and 2.48 % ID/g
- % ID/g Mean Small intestine (60 min): 5.18 % ID/g
- % ID/g Small intestine (60 min): 8.18 % ID/g and 3.18 % ID/g
- % ID/g Mean Small intestine (+ Blocker Cold FAPI-04, 60 min): 0.99 % ID/g
- % ID/g Small intestine (+ Blocker Cold FAPI-04, 60 min): 0.91 % ID/g and 1.06 % ID/g
- % ID/g Mean Spleen (30 min): 2.08 % ID/g
- % ID/g Spleen (30 min): 2.08 % ID/g and 2.12 % ID/g
- % ID/g Mean Spleen (60 min): 2.35 % ID/g
- % ID/g Spleen (60 min): 2.25 % ID/g and 2.45 % ID/g
- % ID/g Mean Spleen (+ Blocker Cold FAPI-04, 60 min): 0.51 % ID/g
- % ID/g Spleen (+ Blocker Cold FAPI-04, 60 min): 0.29 % ID/g and 0.38 % ID/g
- % ID/g Mean Stomach (30 min): 1.52 % ID/g
- % ID/g Stomach (30 min): 1.84 % ID/g and 1.21 % ID/g
- % ID/g Mean Stomach (60 min): 1.68 % ID/g
- % ID/g Stomach (60 min): 1.68 % ID/g and 1.57 % ID/g
- % ID/g Mean Stomach (+ Blocker Cold FAPI-04, 60 min): 0.34 % ID/g
- % ID/g Stomach (+ Blocker Cold FAPI-04, 60 min): 0.28 % ID/g and 0.40 % ID/g
- % ID/g Mean Tumor (30 min): 3.11 % ID/g
- % ID/g Tumor (30 min): 2.90 % ID/g and 3.32 % ID/g
- % ID/g Mean Tumor (60 min): 6.20 % ID/g
- % ID/g Tumor (60 min): 5.22 % ID/g and 7.17 % ID/g
- % ID/g Mean Tumor (+ Blocker Cold FAPI-04, 60 min): 1.04 % ID/g
- % ID/g Tumor (+ Blocker Cold FAPI-04, 60 min): 0.89 % ID/g and 1.19 % ID/g
